Results from ChEMBL document CHEMBL2021850, “Steroidal C-21 heteroaryl thioethers. Part 3: pregn-4-eno-[3,2-c]pyrazole fused A ring modified steroids as selective glucocorticoid receptor modulators (dissociated steroids)” (Bioorg Med Chem Lett, 2012).

Columns and labels:
[1] = target: T1, Glucocorticoid receptor (Homo sapiens, UniProt P04150); test: Transactivation activity at human glucocorticoid receptor in cells co-expressing GRE by luciferase reporter gene assay relative to control; settings: read-out: Efficacy
T1 sequence (P04150 whole entry): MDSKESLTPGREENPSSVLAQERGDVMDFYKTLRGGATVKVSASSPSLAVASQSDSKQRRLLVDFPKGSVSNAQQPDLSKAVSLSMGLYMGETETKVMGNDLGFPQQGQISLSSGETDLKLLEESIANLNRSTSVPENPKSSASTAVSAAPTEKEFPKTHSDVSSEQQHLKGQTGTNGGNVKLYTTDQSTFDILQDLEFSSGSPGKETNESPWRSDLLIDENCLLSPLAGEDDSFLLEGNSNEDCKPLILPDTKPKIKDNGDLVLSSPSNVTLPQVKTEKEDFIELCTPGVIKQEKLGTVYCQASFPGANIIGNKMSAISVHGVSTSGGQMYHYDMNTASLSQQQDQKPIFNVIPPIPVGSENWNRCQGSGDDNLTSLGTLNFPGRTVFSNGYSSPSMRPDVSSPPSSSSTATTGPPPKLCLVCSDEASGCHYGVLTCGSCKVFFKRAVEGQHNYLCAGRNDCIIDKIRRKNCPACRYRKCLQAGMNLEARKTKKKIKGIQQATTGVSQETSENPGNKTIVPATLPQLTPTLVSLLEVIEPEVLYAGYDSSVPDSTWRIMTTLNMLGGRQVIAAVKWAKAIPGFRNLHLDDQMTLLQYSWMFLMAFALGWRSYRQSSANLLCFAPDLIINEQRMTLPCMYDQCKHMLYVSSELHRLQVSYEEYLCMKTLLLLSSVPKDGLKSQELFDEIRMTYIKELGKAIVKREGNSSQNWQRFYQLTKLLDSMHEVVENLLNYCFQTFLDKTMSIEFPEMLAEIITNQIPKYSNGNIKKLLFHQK

[2] = target: T1, Glucocorticoid receptor; test: Transrepression activity at glucocorticoid receptor in human H292 cells assessed as inhibition of TNF-induced IL8 production; type: cell-based
[3] = target: T2, Glucocorticoid receptor (Rattus norvegicus, UniProt P06536); test: Transactivation activity at glucocorticoid receptor in rat H4II-E cells assessed as induction of tyrosine aminotransferase; type: ADME, cell-based
T2 sequence (P06536 whole entry): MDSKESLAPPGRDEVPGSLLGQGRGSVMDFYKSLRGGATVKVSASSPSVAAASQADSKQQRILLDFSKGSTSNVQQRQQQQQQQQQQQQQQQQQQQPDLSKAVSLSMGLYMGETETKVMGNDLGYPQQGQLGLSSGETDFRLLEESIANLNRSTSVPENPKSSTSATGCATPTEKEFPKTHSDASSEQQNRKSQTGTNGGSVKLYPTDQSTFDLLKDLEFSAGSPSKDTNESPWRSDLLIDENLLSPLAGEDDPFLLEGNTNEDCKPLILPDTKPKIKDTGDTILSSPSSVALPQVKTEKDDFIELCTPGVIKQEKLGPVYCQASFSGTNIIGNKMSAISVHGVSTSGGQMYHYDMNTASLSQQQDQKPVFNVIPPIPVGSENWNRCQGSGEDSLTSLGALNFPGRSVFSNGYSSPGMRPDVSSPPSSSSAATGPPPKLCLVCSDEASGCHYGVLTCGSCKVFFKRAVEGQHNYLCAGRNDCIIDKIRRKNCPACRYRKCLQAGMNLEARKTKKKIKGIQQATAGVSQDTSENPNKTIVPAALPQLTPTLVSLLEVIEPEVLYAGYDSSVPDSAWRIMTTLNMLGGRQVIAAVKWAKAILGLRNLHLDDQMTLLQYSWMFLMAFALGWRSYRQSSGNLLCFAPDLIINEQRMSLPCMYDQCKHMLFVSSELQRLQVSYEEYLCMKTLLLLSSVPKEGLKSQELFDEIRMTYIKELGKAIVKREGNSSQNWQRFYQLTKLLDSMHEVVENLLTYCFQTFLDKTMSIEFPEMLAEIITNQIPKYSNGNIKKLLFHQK

[4] = target: T1, Glucocorticoid receptor; test: Transactivation activity at glucocorticoid receptor in human HepG2 cells assessed as induction of tyrosine aminotransferase; type: ADME, cell-based
[5] = AUC in po dosed rat; type: ADME, organism-based; settings: plasma; further: test concentration or dose not given here
[6] = Cmax in po dosed rat; type: ADME, organism-based; design: route oral; settings: in vivo; further: test concentration or dose not given here
[7] = target: T1, Glucocorticoid receptor; test: Transactivation activity at human glucocorticoid receptor in cells co-expressing GRE by luciferase reporter gene assay; settings: read-out: IC50 (the source's name)

Row | SMILES | Emax [1] [%] | IC50 [2] [nM] | IC50 [3] [nM] | IC50 [4] [nM] | AUC [5] [ng·h/mL] | Cmax [6] [ng/mL] | EC50 [7] [nM]
1 | Cc1cccc(SCC(=O)[C@@]2(O)CC[C@H]3[C@@H]4CCC5=CC(=O)CC[C@]5(C)[C@H]4[C@@H](O)C[C@@]32C)n1 | 18 | 127 | – | – | – | – | –
2 | C[C@]12Cc3cnn(-c4ccc(F)cc4)c3C=C1CC[C@@H]1[C@@H]2[C@@H](O)C[C@@]2(C)[C@H]1CC[C@]2(O)C(=O)CSc1nccc2ccccc12 | – | 1.6 | 65.4 | 37.3 | – | – | –
3 | C[C@]12Cc3cnn(-c4ccc(F)cc4)c3C=C1CC[C@@H]1[C@@H]2[C@@H](O)C[C@@]2(C)[C@H]1CC[C@]2(O)C(=O)COc1ccc2ccccc2n1 | – | 1.8 | 44.7 | – | – | – | –
4 | C[C@]12Cc3cnn(C4CCCCC4)c3C=C1CC[C@@H]1[C@@H]2[C@@H](O)C[C@@]2(C)[C@H]1CC[C@]2(O)C(=O)CSc1cnc2ccccc2n1 | 84 | 12.4 | – | – | – | – | –
5 | C[C@]12Cc3cnn(-c4ccc(F)cc4)c3C=C1CC[C@@H]1[C@@H]2[C@@H](O)C[C@@]2(C)[C@H]1CC[C@]2(O)C(=O)COc1nc2ccccc2s1 | – | 2.1 | 84 | – | – | – | –
6 | C[C@]12Cc3cnn(-c4ccc(F)cc4)c3C=C1CC[C@@H]1[C@@H]2[C@@H](O)C[C@@]2(C)[C@H]1CC[C@]2(O)C(=O)COc1ccc2ccccc2c1 | – | 1.06 | 58 | 29.2 | – | – | –
7 | C[C@]12Cc3cnn(-c4ccc(F)cc4)c3C=C1CC[C@@H]1[C@@H]2[C@@H](O)C[C@@]2(C)[C@H]1CC[C@]2(O)C(=O)CO | – | 0.4 | 3.2 | 40.9 | 1040 | 240 | –
8 | C[C@]12Cc3cnn(-c4ccc(F)cc4)c3C=C1CC[C@@H]1[C@@H]2[C@@H](O)C[C@@]2(C)[C@H]1CC[C@]2(O)C(=O)CSc1ccc2ccccc2c1 | – | 0.72 | 52.5 | 30.5 | – | – | –
9 | C[C@]12Cc3cnn(-c4ccc(F)cc4)c3C=C1CC[C@@H]1[C@@H]2[C@@H](O)C[C@@]2(C)[C@H]1CC[C@]2(O)C(=O)CSc1ccc2ccccc2n1 | – | 5.3 | 24.3 | 18.3 | – | – | –
10 | C[C@]12Cc3cnn(-c4ccccc4)c3C=C1CC[C@@H]1[C@@H]2[C@@H](O)C[C@@]2(C)[C@H]1CC[C@]2(O)C(=O)CO | – | 0.63 | 3.23 | 143 | 2480 | 628 | –
11 | C[C@]12CCC(=O)C=C1CC[C@@H]1[C@@H]2[C@@H](O)C[C@@]2(C)[C@H]1CC[C@]2(O)C(=O)CSc1nnc(-c2ccccc2)o1 | 54 | 29.2 | – | – | – | – | –
12 | C[C@]12Cc3cnn(C4CCCCC4)c3C=C1CC[C@@H]1[C@@H]2[C@@H](O)C[C@@]2(C)[C@H]1CC[C@]2(O)C(=O)CSc1nc2ccccc2s1 | 78 | 7.1 | 54.7 | 400 | – | – | –
13 | Cn1c(OCC(=O)[C@@]2(O)CC[C@H]3[C@@H]4CCC5=Cc6c(cnn6-c6ccc(F)cc6)C[C@]5(C)[C@H]4[C@@H](O)C[C@@]32C)nc2ccccc21 | – | 2.9 | 78 | – | – | – | –
14 | Cn1c(SCC(=O)[C@@]2(O)CC[C@H]3[C@@H]4CCC5=Cc6c(cnn6C6CCCCC6)C[C@]5(C)[C@H]4[C@@H](O)C[C@@]32C)nc2ccccc21 | 75 | 6.6 | 1000 | – | – | – | –
15 | C[C@]12CCC(=O)C=C1CC[C@@H]1[C@@H]2[C@@H](O)C[C@@]2(C)[C@H]1CC[C@]2(O)C(=O)CSc1nc2ccccc2s1 | 30 | – | – | – | – | – | –
16 | C[C@]12Cc3cnn(-c4ccc(F)cc4)c3C=C1CC[C@@H]1[C@@H]2[C@@H](O)C[C@@]2(C)[C@H]1CC[C@]2(O)C(=O)CSc1nc2ccccc2s1 | – | 1.7 | 24.1 | 101 | – | – | –

Row | SMILES | Emax [1] [%] | IC50 [2] [nM] | IC50 [3] [nM] | IC50 [4] [nM] | AUC [5] [ng·h/mL] | Cmax [6] [ng/mL] | EC50 [7] [nM]
17 | C[C@]12Cc3cnn(-c4ccccc4)c3C=C1CC[C@@H]1[C@@H]2[C@@H](O)C[C@@]2(C)[C@H]1CC[C@]2(O)C(=O)CSc1nc2ccccc2s1 | 89 | 7.5 | 57.3 | 165 | – | – | –
18 | C[C@]12Cc3cnn(C4CCCCC4)c3C=C1CC[C@@H]1[C@@H]2[C@@H](O)C[C@@]2(C)[C@H]1CC[C@]2(O)C(=O)CO | 96 | 2.37 | – | – | – | – | 5.57
19 | C[C@]12Cc3cnn(-c4ccc(F)cc4)c3C=C1CC[C@@H]1[C@@H]2[C@@H](O)C[C@@]2(C)[C@H]1CC[C@]2(O)C(=O)CSc1ccccn1 | – | 0.5 | 4.5 | 4.7 | – | – | –
20 | C[C@]12Cc3cnn(-c4ccc(F)cc4)c3C=C1CC[C@@H]1[C@@H]2[C@@H](O)C[C@@]2(C)[C@H]1CC[C@]2(O)C(=O)COc1cnc2ccccc2n1 | – | 1.89 | – | 98.7 | – | – | –
21 | C[C@]12Cc3cnn(C4CCCCC4)c3C=C1CC[C@@H]1[C@@H]2[C@@H](O)C[C@@]2(C)[C@H]1CC[C@]2(O)C(=O)CSc1nc2ccccc2o1 | 72 | 3.12 | 31.6 | 82.1 | – | – | –
22 | C[C@]12Cc3cnn(C4CCCCC4)c3C=C1CC[C@@H]1[C@@H]2[C@@H](O)C[C@@]2(C)[C@H]1CC[C@]2(O)C(=O)CSc1ccc2ccccc2n1 | 71 | 44.7 | – | – | – | – | –
23 | C[C@]12Cc3cnn(C4CCCCC4)c3C=C1CC[C@@H]1[C@@H]2[C@@H](O)C[C@@]2(C)[C@H]1CC[C@]2(O)C(=O)CSc1ccccn1 | 87 | 4.4 | – | – | – | – | –
24 | C[C@]12CCC(=O)C=C1CC[C@@H]1[C@@H]2[C@@H](O)C[C@@]2(C)[C@H]1CC[C@]2(O)C(=O)CSc1ccc(Cl)c(Cl)c1 | 28 | 27.2 | – | – | – | – | –
25 | C[C@]12Cc3cnn(-c4ccc(F)cc4)c3C=C1CC[C@@H]1[C@@H]2[C@@H](O)C[C@@]2(C)[C@H]1CC[C@]2(O)C(=O)CSc1ncccn1 | – | 0.6 | 14.3 | 37.7 | – | – | –
26 | C[C@]12Cc3cnn(-c4ccccc4)c3C=C1CC[C@@H]1[C@@H]2[C@@H](O)C[C@@]2(C)[C@H]1CC[C@]2(O)C(=O)COc1cnc2ccccc2n1 | 56 | 3.7 | – | – | – | – | –
27 | COc1ccc(-n2ncc3c2C=C2CC[C@@H]4[C@H]([C@@H](O)C[C@@]5(C)[C@H]4CC[C@]5(O)C(=O)CSc4nc5ccccc5s4)[C@@]2(C)C3)cc1 | – | 107 | – | – | – | – | –
28 | C[C@]12Cc3cnn(-c4ccccn4)c3C=C1CC[C@@H]1[C@@H]2[C@@H](O)C[C@@]2(C)[C@H]1CC[C@]2(O)C(=O)CSc1nc2ccccc2s1 | – | 179 | – | – | – | – | –
29 | C[C@]12Cc3cnn(C4CCOCC4)c3C=C1CC[C@@H]1[C@@H]2[C@@H](O)C[C@@]2(C)[C@H]1CC[C@]2(O)C(=O)CSc1nc2ccccc2s1 | – | 86.4 | – | – | – | – | –
30 | Cn1c(SCC(=O)[C@@]2(O)CC[C@H]3[C@@H]4CCC5=Cc6c(cnn6-c6ccc(F)cc6)C[C@]5(C)[C@H]4[C@@H](O)C[C@@]32C)nc2ccccc21 | – | 1.1 | 174 | 88.7 | – | – | –
31 | C[C@]12Cc3cnn(-c4ccc(F)cc4)c3C=C1CC[C@@H]1[C@@H]2[C@@H](O)C[C@@]2(C)[C@H]1CC[C@]2(O)C(=O)CSc1nc2ccccc2c(=O)[nH]1 | – | 3 | 86.5 | 93.5 | – | – | –
32 | C[C@]12CCC(=O)C=C1CC[C@@H]1[C@@H]2[C@@H](O)C[C@@]2(C)[C@H]1CC[C@]2(O)C(=O)CSc1nc2ncccc2o1 | 37 | 61.3 | – | – | – | – | –
